Paper PMC10381309 (Journal of Fungi, 2023)
In brackets after ≈: the same amount, converted by molar mass. Read-outs that look alike come from different tables or passages of the source.

Columns and labels:
[1] = test system: Fonsecaea pedrosoi (CFP 00791); assay: NIH Clinical Collection screening for antifungal activity (growth inhibition, OD 530 nm); assay type: cell-based; details: 10 µM, CFP00791 Fonsecaea pedrosoi isolate, 72–96 h; for inhibition at 10 µM: read-out: % Growth Inhibition
Experimental: These substances are part of the NIH Roadmap Molecular Libraries Screening Centers Network screening library, a collection of chemically diverse substances in Phase I-III clinical trials. Each substance was initially diluted to 1 mM in DMSO and stored at −20 °C until use. […] The final DMSO concentration corresponded to 0.5% v/v. The inoculum was prepared according to the protocol for filamentous fungi proposed by the European Committee on Antimicrobial Susceptibility Testing—EUCAST, with minor modifications. […] After growth, conidia were suspended in 3 mL of sterile distilled water with 0.1% Tween 20, vortexed, and the concentration adjusted to the 0.5 McFarland scale. The suspension was then diluted 1:10 in order to obtain a final working inoculum at 2–5 × 10^5 CFU/mL. Next, 100 µL of the inoculum was added to each well and the plates incubated at 35 °C for 72–96 h. Negative and positive controls consisted of culture medium alone and drug-free culture medium with the fungal inoculum previously described, respectively. Plates were read using a microplate reader (Epoch, Biotek, Wenusky, VT, USA) with a 530 nm filter to obtain the optical density. All plates were also visually read to confirm the equipment data. A calculation was performed to obtain the percentage of inhibition of fungal growth, according to the formula: (1 − (OD1/OD2)) × 100, where OD1 = optical density of the fungus in the presence of the drug; and OD2 = optical density of the growth control drug-free well.

[2] = test system: different species that cause CBM; assay: MIC determination of hit drugs, stated over the panel of CBM agents; assay type: cell-based
Excerpt: In this study, eight fungal isolates obtained from the Fiocruz Pathogenic Fungi Collection (CFP) and the American Type Culture Collection (ATCC®) were used. Fonsecaea pedrosoi (CFP 00791) was used throughout the study. This species is one of the main CBM agents worldwide. Cladophialophora carrionii (CFP 00910), Phialophora verrucosa (CFP 00937), Fonsecaea monophora (CFP 00911), Fonsecaea nubica (CFP 00912), Rhinocladiela similis (CFP 00790), Exophiala heteromorpha (ATCC® 28180), and Exophiala dermatitidis (ATCC® 28869) were used to determine the minimum inhibitory concentration (MIC) and in synergism assays. Strains were maintained on potato dextrose agar (PDA) (Sigma Chemical Corporation, St. Louis, MO, USA). Seven-day cultures incubated at 30 °C were used in the assays.
(§1) Minimum inhibitory concentrations (MICs) were determined using the method proposed by the European Committee on Antimicrobial Susceptibility Testing (EUCAST), with minor modifications. Hit drugs were serially diluted (80 μM to 0.15625 μM) in RPMI 1640 (twice concentrated, pH 7; supplemented with 2% glucose) buffered with MOPS in 96-well plates. The inoculums of all strains were prepared following the EUCAST protocol. Plates were incubated at 35 °C for 72–96 h. The MIC of the NCC substances was determined as the lowest concentration capable of inhibiting 100% of fungal growth when compared to the growth control well. MIC values were determined in duplicate.

[3] = test system: Fonsecaea nubica (CFP 00912); assay: MIC determination (EUCAST, minor modifications); assay type: cell-based; details: F. nubica; for MIC: 100% growth inhibition, read-out: MIC
Experimental: as §1

[4] = test system: Cladophialophora carrionii (CFP 00910); assay: Minimum fungicidal concentration determination; assay type: cell-based; details: C. carrionii
Experimental: The MFC was determined as the lowest drug concentration without fungal growth on Sabouraud agar after five days of incubation at 35 °C.

[5] = test system: Exophiala dermatitidis (ATCC 28869); assay: MIC determination (EUCAST, minor modifications); assay type: cell-based; details: E. dermatitidis
Experimental: as §1

[6] = test system: Phialophora verrucosa (CFP 00937); assay: MIC determination (EUCAST, minor modifications); assay type: cell-based; details: P. verrucosa
Experimental: as §1

[7] = test system: Exophiala heteromorpha (ATCC 28180); assay: MIC determination (EUCAST, minor modifications); assay type: cell-based; details: E. heteromorpha
Experimental: as §1

[8] = test system: Cladophialophora carrionii (CFP 00910); assay: MIC determination (EUCAST, minor modifications); assay type: cell-based; details: C. carrionii
Experimental: as §1

[9] = test system: Fonsecaea monophora (CFP 00911); assay: MIC determination (EUCAST, minor modifications); assay type: cell-based; details: F. monophora
Experimental: as §1

[10] = test system: Rhinocladiela similis (CFP 00790); assay: MIC determination (EUCAST, minor modifications); assay type: cell-based; details: R. similis
Experimental: as §1

[11] = test system: Fonsecaea pedrosoi (CFP 00791); assay: MIC determination (EUCAST, minor modifications); assay type: cell-based; details: F. pedrosoi
Experimental: as §1

[12] = test system: Exophiala dermatitidis (ATCC 28869); assay: Minimum fungicidal concentration determination; assay type: cell-based; details: E. dermatitidis
Experimental: (§2) Minimum fungicidal concentration (MFC) was determined in triplicate by transferring a 5 μL aliquot from each well without fungal growth of the microdilution plates used for MIC determination, as described above, onto 2% glucose Sabouraud agar (Sigma Chemical Corporation). The MFC was determined as the lowest drug concentration without fungal growth on Sabouraud agar after five days of incubation at 35 °C. When the MFC/MIC ratio of a hit drug was 1 or 2, the substance was considered fungicidal against the pathogen. If this ratio was greater than 2, the hit drug was considered to be fungistatic.

[13] = test system: Phialophora verrucosa (CFP 00937); assay: Minimum fungicidal concentration determination; assay type: cell-based; details: P. verrucosa
Experimental: as §2

[14] = test system: Fonsecaea nubica (CFP 00912); assay: Minimum fungicidal concentration determination; assay type: cell-based; details: F. nubica
Experimental: as §2

[15] = test system: Exophiala heteromorpha (ATCC 28180); assay: Minimum fungicidal concentration determination; assay type: cell-based; details: E. heteromorpha
Experimental: as §2

[16] = test system: Fonsecaea monophora (CFP 00911); assay: Minimum fungicidal concentration determination; assay type: cell-based; details: F. monophora
Experimental: as §2

[17] = test system: Rhinocladiela similis (CFP 00790); assay: Minimum fungicidal concentration determination; assay type: cell-based; details: R. similis
Experimental: as §2

[18] = test system: Fonsecaea pedrosoi (CFP 00791); assay: Minimum fungicidal concentration determination; assay type: cell-based; details: F. pedrosoi
Experimental: as §2

[19] = test system: Cladophialophora carrionii (CFP 00910); details: C. carrionii; PDA; 7 days, 37 °C; albendazole at ½ MIC
Experimental: (§3) At the end of the seven days of incubation at 37 °C, the plates were read visually. The aspect of the colonies supplemented with albendazole were compared to those of the positive melanin and inhibition melanin controls, to determine whether the color of the albendazole-supplemented cultures resembled the positive DHN-melanin or the melanin inhibition control. Pictures of the colonies were captured using a Canon EOS Rebel T7+ digital camera.

[20] = test system: Fonsecaea pedrosoi (CFP 00791); details: F. pedrosoi; PDA; 7 days, 37 °C; albendazole at ½ MIC
Experimental: as §3

[21] = test system: Exophiala heteromorpha (ATCC 28180); details: E. heteromorpha; PDA; 7 days, 37 °C; albendazole at ½ MIC
Experimental: as §3

[22] = different species that cause CBM, highest concentration tested 80 µM, read-out: MIC

`Nc1nc(=O)[nH]cc1F` [5-Fluorocytosine] was tested, and the inhibition at 10 µM [1] was 68%.

Work on `O=c1[nH]cc(F)c(=O)[nH]1` [5-Fluorouracil] yielded an inhibition at 10 µM [1] of 85%.

Work on `CCCCCCNC(=O)n1cc(F)c(=O)[nH]c1=O` [Carmofur] yielded an inhibition at 10 µM [1] of 100%.

`CN1C(=O)CC[C@H]1c1cccnc1` [Cotinine (nicotine), Cotinine] was tested, and the MIC [2, 22] was greater than 80 µM and the inhibition at 10 µM [1] was 71%.

`Clc1ccc(COC(Cn2ccnc2)c2ccc(Cl)cc2Cl)cc1` (centres unmarked) [Econazole nitrate] was tested, and the inhibition at 10 µM [1] was 94%.

With `C[C@H](N[C@@H](CCc1ccccc1)C(=O)O)C(=O)N1CCC[C@H]1C(=O)O` [Enalaprilat] the MIC ([2]; different species that cause CBM, highest concentration tested 80 µM) was “above 80 µM” and the “% Growth Inhibition” value [1] was 67%.

Compound `O=C(NCC1CCCCN1)c1cc(OCC(F)(F)F)ccc1OCC(F)(F)F` (centres unmarked) [Flecainide Acetate] has an inhibition at 10 µM [1] of 95%.

`O=c1[nH]c(=O)n([C@H]2C[C@H](O)[C@@H](CO)O2)cc1F` [Floxuridine] showed an MIC ([2]; CBM agents except the Fonsecaea nubica isolate, read-out: MIC) greater than 80 µM, an MIC [3] of 0.3125 µM (≈ 0.0769 µg/mL) and an inhibition at 10 µM [1] of 86%.

`CC(=O)NC[C@H]1CN(c2ccc(N3CCOCC3)c(F)c2)C(=O)O1` [Linezolid] was tested, and the MIC [2, 22] was greater than 80 µM and the inhibition at 10 µM [1] was 87%.

Work on `CN1CCCCC1CCN1c2ccccc2Sc2ccc([S+](C)[O-])cc21` (centres unmarked) [Mesoridazine (Serentil), Mesoridazine] yielded an inhibition at 10 µM [1] of 86%.

`Clc1ccc(COC(Cn2ccnc2)c2ccc(Cl)cc2Cl)c(Cl)c1` (centres unmarked) [Miconazole nitrate] was tested, and the inhibition at 10 µM [1] was 99%.

Work on `OCCN1C[C@H](O)[C@@H](O)[C@H](O)[C@H]1CO` [Miglitol] yielded an MIC [2, 22] greater than 80 µM and an inhibition at 10 µM [1] of 90%.

`CN(C)CC/C=C1/c2ccccc2COc2ccc(CC(=O)O)cc21` [Olopatadine (Patanol), Olopatadine] was tested, and the inhibition at 10 µM [1] was 85%.

`COCCCOc1ccnc(C[S+]([O-])c2nc3ccccc3[nH]2)c1C` (centres unmarked) [Rabeprazole] was tested, and the MIC [2, 22] was greater than 80 µM and the inhibition at 10 µM [1] was 61%.

`CN[C@H]1CC[C@@H](c2ccc(Cl)c(Cl)c2)c2ccccc21` [Sertraline] showed an MIC [2, 22] of 10 to 40 µM.

With `C=CC[C@@H]1/C=C(\C)C[C@H](C)C[C@H](OC)[C@H]2O[C@@](O)(C(=O)C(=O)N3CCCC[C@H]3C(=O)O[C@H](/C(C)=C/[C@@H]3CC[C@@H](O)[C@H](OC)C3)[C@H](C)[C@@H](O)CC1=O)[C@H](C)C[C@@H]2OC` [Tacrolimus] the inhibition at 10 µM [1] was 89%.

For `c1ccc2[nH]c(-c3cscn3)nc2c1` [Thiabendazole], the “MFC:MIC Ratio” value [4] was 1, the “fungicidal or fungistatic (MFC/MIC ratio)” value [4] was “fungicidal (When the MFC/MIC ratio of a hit drug was 1 or 2, the substance was considered fungicidal)” and the MFC ([4]; Cladophialophora carrionii, read-out: MFC) was 5 µM (≈ 1.01 µg/mL). For the same compound, the “Selectivity Index (SI)” value ([5]; CC50 Vero 24 h / MIC) was 49.75, the MIC ([5]; Exophiala dermatitidis, ATCC28869, 100% growth inhibition, read-out: MIC) was 10 µM (≈ 2.01 µg/mL) and the “Selectivity Index (SI)” value ([6]; CC50 Vero 24 h / MIC) was 99.50. The MIC ([6]; Phialophora verrucosa, 100% growth inhibition, read-out: MIC) was 5 µM (≈ 1.01 µg/mL), the “Selectivity Index (SI)” value ([3]; CC50 Vero 24 h / MIC) was 99.50 and the MIC ([3]; Fonsecaea nubica) was 5 µM (≈ 1.01 µg/mL). For the same compound, the “Selectivity Index (SI)” value ([7]; CC50 Vero 24 h / MIC) was 49.75, the MIC ([7]; Exophiala heteromorpha, ATCC28180, 100% growth inhibition, read-out: MIC) was 10 µM (≈ 2.01 µg/mL) and the “Selectivity Index (SI)” value ([8]; CC50 Vero 24 h / MIC) was 99.50. For the same compound, the MIC ([8]; Cladophialophora carrionii, 100% growth inhibition, read-out: MIC) was 5 µM (≈ 1.01 µg/mL), the “Selectivity Index (SI)” value ([9]; CC50 Vero 24 h / MIC) was 99.50 and the MIC ([9]; Fonsecaea monophora, 100% growth inhibition, read-out: MIC) was 5 µM (≈ 1.01 µg/mL). The MIC ([10]; 100% growth inhibition, read-out: MIC) was 10 µM (≈ 2.01 µg/mL), the “Selectivity Index (SI)” value ([10]; CC50 Vero 24 h / MIC) was 49.75 and the “Selectivity Index (SI)” value ([11]; CC50 Vero 24 h / MIC) was 99.50. The MIC ([11]; Fonsecaea pedrosoi, 100% growth inhibition, read-out: MIC) was 5 µM (≈ 1.01 µg/mL), the inhibition at 10 µM [1] was 82% and the “MFC:MIC Ratio” value [12] was 8. For the same compound, the MFC ([12]; Exophiala dermatitidis, ATCC28869, read-out: MFC) was 80 µM (≈ 16.1 µg/mL), the “MFC:MIC Ratio” value [13] was 4 and the MFC ([13]; Phialophora verrucosa, read-out: MFC) was 20 µM (≈ 4.03 µg/mL). For the same compound, the “MFC:MIC Ratio” value [14] was 1, the “fungicidal or fungistatic (MFC/MIC ratio)” value [14] was “fungicidal (When the MFC/MIC ratio of a hit drug was 1 or 2, the substance was considered fungicidal)” and the MFC ([14]; Fonsecaea nubica, read-out: MFC) was 5 µM (≈ 1.01 µg/mL). For the same compound, the “MFC:MIC Ratio” value [15] was 8, the MFC ([15]; Exophiala heteromorpha, ATCC28180, read-out: MFC) was 80 µM (≈ 16.1 µg/mL) and the “MFC:MIC Ratio” value [16] was 1. For the same compound, the “fungicidal or fungistatic (MFC/MIC ratio)” value [16] was “fungicidal (When the MFC/MIC ratio of a hit drug was 1 or 2, the substance was considered fungicidal)”, the MFC ([16]; Fonsecaea monophora, read-out: MFC) was 5 µM (≈ 1.01 µg/mL) and the “MFC:MIC Ratio” value [17] was 4. The MFC ([17]; read-out: MFC) was 40 µM (≈ 8.05 µg/mL), the “MFC:MIC Ratio” value [18] was 1 and the “fungicidal or fungistatic (MFC/MIC ratio)” value [18] was “fungicidal (When the MFC/MIC ratio of a hit drug was 1 or 2, the substance was considered fungicidal)”. For the same compound, the MFC ([18]; Fonsecaea pedrosoi, read-out: MFC) was 5 µM (≈ 1.01 µg/mL).

With `CCC(C)n1ncn(-c2ccc(N3CCN(c4ccc(OCC5COC(Cn6cncn6)(c6ccc(Cl)cc6Cl)O5)cc4)CC3)cc2)c1=O` (centres unmarked) [itraconazole] the inhibition at 10 µM [1] was 100%.

`Cc1cccc2sc3nncn3c12` [tricyclazole] was tested, and the melanin production [19] was “changes the color of colonies from dark green, gray or black (due to melanin) to reddish brown”, the melanin production [20] was “changes the color of colonies from dark green, gray or black (due to melanin) to reddish brown” and the melanin production [21] was “changes the color of colonies from dark green, gray or black (due to melanin) to reddish brown”.

In the case of Medroxyprogesterone, the “% Growth Inhibition” value [1] is reported as 91%.
